Data published in the supplement of paper PMC10307832.

Key:
Experiment in all cases: relative viability (nuclei count vs DMSO), 5 days (fraction); higher = more cells survive
Tivantinib + Decitabine = compound: O=C1NC(=O)[C@@H](c2cn3c4c(cccc24)CCC3)[C@@H]1c1c[nH]c2ccccc12 [Tivantinib] + Nc1ncn([C@H]2C[C@H](O)[C@@H](CO)O2)c(=O)n1 [Decitabine] (partner 2 µM)
Method in brief: (§1)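 After 5 days of treatment, lung cancer cells in 1536-well plates were fixed and stained in a single step (final 0.05% Triton X-100, 1% formaldehyde, 1 ug/ml Hoechst) and their nuclei counted on 4× images. Treatment had been applied by pin tool the day after seeding as one drug alone or as a fixed anchor-drug dose with five library-drug doses (not always all listed) in √10 steps. Relative viability is the nuclei count of treated wells divided by that of vehicle wells, and values are medians of duplicate plates.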

Tivantinib + Crizotinib = compound: O=C1NC(=O)[C@@H](c2cn3c4c(cccc24)CCC3)[C@@H]1c1c[nH]c2ccccc12 [Tivantinib] + C[C@@H](Oc1cc(-c2cnn(C3CCNCC3)c2)cnc1N)c1c(Cl)ccc(F)c1Cl [Crizotinib] (partner 1 µM)
Method in brief: as §1

Crenolanib + Palbociclib = compound: CC1(COc2ccc3c(c2)ncn3-c2ccc3cccc(N4CCC(N)CC4)c3n2)COC1 [Crenolanib] + CC(=O)c1c(C)c2cnc(Nc3ccc(N4CCNCC4)cn3)nc2n(C2CCCC2)c1=O [Palbociclib] (partner 0.5 µM)
Method in brief: as §1

Crenolanib + AZD7762 = compound: CC1(COc2ccc3c(c2)ncn3-c2ccc3cccc(N4CCC(N)CC4)c3n2)COC1 [Crenolanib] + NC(=O)Nc1cc(-c2cccc(F)c2)sc1C(=O)N[C@H]1CCCNC1 [AZD7762] (partner 0.2 µM)
Method in brief: as §1

Cell Line	relative viability (Tivantinib + Decitabine; first compound 0.03162 µM)	relative viability (Tivantinib + Decitabine; first compound 0.1 µM)	relative viability (Tivantinib + Decitabine; first compound 0.3162 µM)	relative viability (Tivantinib + Crizotinib; first compound 0.01 µM)	relative viability (Tivantinib + Crizotinib; first compound 0.03162 µM)	relative viability (Tivantinib + Crizotinib; first compound 0.1 µM)	relative viability (Crenolanib + Palbociclib; first compound 0.01 µM)	relative viability (Crenolanib + Palbociclib; first compound 0.03162 µM)	relative viability (Crenolanib + Palbociclib; first compound 0.1 µM)	relative viability (Crenolanib + Palbociclib; first compound 0.3162 µM)	relative viability (Crenolanib + Palbociclib; first compound 1 µM)	relative viability (Crenolanib + AZD7762; first compound 0.01 µM)	relative viability (Crenolanib + AZD7762; first compound 0.03162 µM)	relative viability (Crenolanib + AZD7762; first compound 0.1 µM)	relative viability (Crenolanib + AZD7762; first compound 0.3162 µM)	relative viability (Crenolanib + AZD7762; first compound 1 µM)	relative viability (Tivantinib + Decitabine; first compound 0.01 µM)	relative viability (Tivantinib + Crizotinib; first compound 0.3162 µM)
H3255	0.53	0.591	0.27	0.905	0.922	0.763	0.303	0.309	0.325	0.301	0.315	1.05	0.761	0.907	0.835	0.797	–	–
NCI-H3122	0.484	0.398	0.434	0.271	0.275	0.252	0.177	0.193	0.196	0.196	0.206	1.02	0.958	1.02	1.04	0.996	0.434	0.272
NCI-H1792	–	0.473	0.505	1.02	0.948	0.828	0.68	0.683	0.648	0.687	0.677	0.701	0.686	0.656	0.834	0.754	0.535	0.932
HCC-827	0.396	0.316	–	0.92	1.01	0.91	0.453	0.484	0.503	0.482	0.507	0.276	0.212	0.2	0.189	0.218	0.312	0.779
LU99A	0.853	0.865	0.849	0.516	0.593	0.576	0.411	0.453	0.4	0.432	0.441	0.42	0.419	0.414	0.467	0.401	0.869	0.413
LC-2-ad	0.838	0.815	0.804	0.515	0.411	0.501	0.476	0.466	0.505	0.541	0.442	0.892	0.898	0.777	0.908	0.821	0.858	0.411
NCI-H322M	0.703	0.715	–	0.823	0.94	0.901	0.497	0.483	0.482	0.479	0.496	0.589	0.52	0.555	0.544	0.695	0.615	1.02
HOP-62	0.191	0.196	0.242	0.828	–	0.972	0.457	0.45	0.461	0.497	0.481	0.618	0.709	0.668	1.1	0.75	0.173	1.03
NCI-H1993	0.503	0.506	0.539	0.931	0.929	0.899	0.596	0.704	0.621	0.688	0.579	0.843	0.802	0.889	0.974	0.688	0.59	0.765
NCI-H1734	0.487	0.506	0.427	0.685	0.73	0.586	0.515	0.369	0.372	0.338	0.376	0.569	0.61	0.567	0.756	0.659	0.532	0.569
NCI-H1666	0.684	0.748	0.747	0.955	1.03	0.993	0.657	0.678	0.594	0.63	0.694	0.928	0.831	0.761	0.905	0.889	0.745	0.992
NCI-H460	0.499	0.427	0.458	0.878	0.884	0.848	0.165	0.163	0.0988	0.15	0.145	0.668	0.482	0.695	0.872	0.86	0.496	0.217
LCLC-97TM1	0.226	0.226	0.211	0.451	0.305	0.38	0.244	0.183	0.268	0.277	0.232	0.316	0.219	0.41	0.561	0.277	0.232	0.318
LOU-NH91	0.805	0.803	0.669	0.746	0.729	0.705	0.524	0.481	0.518	0.539	0.548	0.765	0.762	0.782	0.817	0.697	0.825	0.53
NCI-H838	0.48	0.428	0.442	0.831	0.924	0.886	0.244	0.232	0.21	0.232	0.205	0.883	0.977	0.886	0.924	0.901	0.446	0.963
NCI-H1437	0.568	0.497	0.545	0.875	1.07	0.977	0.33	0.322	0.301	0.293	0.332	1.15	1.18	1.07	1.19	1.14	0.57	0.91
NCI-H2087	0.311	0.21	0.196	0.987	0.913	0.856	0.248	0.249	0.233	0.211	0.318	1.33	1.18	1.39	1.6	1.34	0.326	1.01
